This note sets out measurements from patent US9440097B2, “Organic compounds” (Givaudan SA, priority 2005, dated 2016).

The test deals with PGE2 formation in normal human epidermal keratinocytes (NHEK). The test can be described thus: Inhibition of PGE2 formation in irritated keratinocyte cultures (PGE2 immunoassay). The class given is cell-based. To be noted: 24 h; for inhibition at 50 µM: Homo sapiens, NHEK, read-out: relative inhibition in % of PGE2 formation in keratinocyte cultures at 50 μM; for relative inhibition in % of PGE2 formation in keratinocyte cultures at μM: column head prints only 'μM' (method: 50 μM or 10 μM), calcimycin 2.5 μM. On the procedure: A confluent culture was trypsinated and adjusted to a density of 5×10^4 cells/ml. The cells were then seeded in the same medium but with only 1% fetal calf serum in 24 well plates and cultivated for a period of 48 h. A model irritating agent was then applied to the cells by adding calcimycin to a final level of 2.5 μM. The individual compounds, as listed below, dissolved in DMSO were added simultaneously. The final concentration of the compounds was 50 μM or 10 μM, the final DMSO concentration was adjusted to 1% (v/v). Parallel treatments received no calcimycin (non-irritated control) or calcimycin without compounds according to the present invention (irritated control). The DMSO concentration was adjusted to 1% in all these control treatments. […] The prostaglandin levels in treated cell cultures were compared to the irritated and non-irritated control cultures in order to determine the relative inhibition of PGE2 formation.

Where [1] appears, read: 50 μM compound, irritated with calcimycin 2.5 μM, 1% DMSO.

Read-outs that look alike come from different tables or passages of the source.

Regarding `CC(C)COC(=O)c1ccccc1O` [Isobutyl salicylate, isobutyl 2-hydroxybenzoate], the inhibition at 50 µM under setting [1] worked out at 69.1%. For the setting “1% DMSO”, the “relative inhibition in % of PGE2 formation in keratinocyte cultures at μM” value (“relative inhibition in %” below) stood at 73.1%.

In the case of `O=C(C=Cc1ccccc1)OCCc1ccccc1` [Phenethyl cinnamate], under setting [1], the inhibition at 50 µM stood at 91.7%. Besides, under “1% DMSO”, the “relative inhibition in %” value was found to be 93.6%.

Turning to `CCCCCOC(=O)c1ccccc1O` [Amyl salicylate, pentyl 2-hydroxybenzoate], under setting [1], the inhibition at 50 µM was 89.8%. Moreover, the “relative inhibition in %” value (1% DMSO) was found to be 73.5%.

With `O=C(C=Cc1ccccc1)OCC=Cc1ccccc1` [Cinnamyl cinnamate], the inhibition at 50 µM under setting [1] was 64%.

With `CC=Cc1ccc(OC)cc1` [ANETHOLE, 1-methoxy-4-(prop-1-enyl)benzene], the inhibition at 50 µM under setting [1] turned out to be 51%.

Regarding `CC(C)(C)C(=O)OCCc1ccccc1` [CENTIFOLYL ™, phenethyl pivalate], under setting [1], the inhibition at 50 µM is 39%.

Regarding `CCOc1cc(COC)ccc1O` [METHYL DIANTILIS ®, 2-Ethoxy-4-(methoxymethyl)phenol], the “relative inhibition in %” value (1% DMSO) was 88.2%.

For `CC=C(C)C(=O)OCc1ccccc1` [TIGLATE BENZYLE, benzyl 2-methylbut-2-enoate], the inhibition at 50 µM under setting [1] was 72.4%. In addition, for the setting “1% DMSO”, the “relative inhibition in %” value was found to be 50.2%.

Consider `CCCCCCOC(=O)c1ccccc1O` [n-Hexyl salicylate], for which, under setting [1], the inhibition at 50 µM turned out to be 82.9%. In addition, the “relative inhibition in %” value (1% DMSO) came to 91.6%.

Take `CC(C=O)Cc1ccc(C(C)C)cc1` (stereo not drawn) [CYCLAMEN ALDEHYDE ™, 2-Methyl-3-(4-isopropylphenyl)propanal]: the inhibition at 50 µM under setting [1] is 82%. The “relative inhibition in %” value (1% DMSO) turned out to be 32%.

Consider `CCC(CC)=C(C#N)c1ccccc1` [3-Ethyl-2-phenylpent-2-enenitrile], for which the inhibition at 50 µM under setting [1] is 73.2%. Also, for the setting “1% DMSO”, the “relative inhibition in %” value is recorded as 63.9%.

On to `N#CC(=C1CCCCC1)c1ccccc1` [PEONILE ®, 2-cyclohexylidene-2-phenylacetonitrile], for which the inhibition at 50 µM under setting [1] was 93.3%. For the same molecule, the “relative inhibition in %” value (1% DMSO) is on record as 92.4%.

For `CC(C)COC(=O)c1ccccc1` [Isobutyl benzoate], the inhibition at 50 µM under setting [1] came to 52.5%.

In the case of `O=C(OC1CCCCC1)c1ccccc1O` [Cyclohexyl salicylate, cyclohexyl 2-hydroxybenzoate], the inhibition at 50 µM under setting [1] worked out at 97.4%. Also, the “relative inhibition in %” value (1% DMSO) was found to be 76.6%.

In the case of `CC(C)C(=O)OCCc1ccccc1` [Phenethyl isobutyrate], the inhibition at 50 µM under setting [1] worked out at 44.8%.

`CC(C)Cc1ccc(CC(C)C=O)cc1` (stereo not drawn) [SILVIAL ®, 2-Methyl-3-(4-(2-methylpropyl)phenyl)propanal]: the inhibition at 50 µM under setting [1] amounted to 62.7%.

Take `CC(=O)OCC=Cc1ccccc1` [Cinnamyl acetate]: the inhibition at 50 µM under setting [1] amounted to 47.8%.

As to `COc1ccc(CC2CC2)cc1` [TOSCANOL ®, 1-(cyclopropylmethyl)-4-methoxybenzene], the inhibition at 50 µM under setting [1] came out at 56.7%.

For the molecule `N#CC(=C1CCCC1)c1ccccc1` [2-Cyclopentylidene-2-phenylacetonitrile], the inhibition at 50 µM under setting [1] was 80.8%. In addition, the “relative inhibition in %” value (1% DMSO) stood at 71.1%.

For `CC/C=C\CCOC(=O)c1ccccc1O` [cis-3-Hexen-1-yl salicylate], the inhibition at 50 µM under setting [1] is 94.8%. For the same molecule, the “relative inhibition in %” value (1% DMSO) is given as 81.4%.

As for `O=C(OCCc1ccccc1)c1ccccc1` [Phenethyl benzoate], under setting [1], the inhibition at 50 µM was 92.4%. Besides, for the setting “1% DMSO”, the “relative inhibition in %” value was 56.9%.

On to `O=C(OCCc1ccccc1)c1ccccc1O` [Phenethyl salicylate], for which the inhibition at 50 µM under setting [1] was determined as 50.9%.

Consider `CC(C)(C)c1ccc(CCC=O)cc1` [BOURGEONAL ™, 3-(4-tert-butylphenyl)propanal], for which, under setting [1], the inhibition at 50 µM came to 65%.

In the case of `CCC(C)C(=O)OCCc1ccccc1` (stereo not drawn) [ANATOLYL ™, phenethyl 2-methylbutanoate], under setting [1], the inhibition at 50 µM worked out at 50.5%.

As for `CCOc1cc(COC(C)C)ccc1O` [PROPYL DIANTILIS, 2-Ethoxy-4-(isopropoxymethyl)phenol], the inhibition at 50 µM was 90.9%. Besides, the “relative inhibition in %” value (1% DMSO) was found to be 95.1%.

Regarding `CCCCCCCC1CCCC1=O` (stereo not drawn) [ALISMONE ™, 2-heptylcyclopentanone], the inhibition at 50 µM under setting [1] turned out to be 92.4%. Also, the “relative inhibition in %” value (1% DMSO) was found to be 47%.

Consider `CCOc1ccc2ccccc2c1` [NEROLINE ™ CRIST, 2-ethoxynaphthalene], for which, under setting [1], the inhibition at 50 µM was found to be 83%. In addition, the “relative inhibition in %” value (1% DMSO) is recorded as 50.2%.

Usually inhibition stands for the relative decrease from the control value, in per cent.
